According to patent publication US20040126369A1, “Delivery of peroxide-generating enzymes to the vaginal tract” (priority 2002, published 2004):

Legend:
Format in all cases: biochemical
[1] = Hydrogen peroxide generation by enzymes on substrates; conditions: for μg of H2O2 produced/ml: one unit enzyme, pH 6.3, 37° C., 12 h
Description: Seven enzymes, including glucose oxidase, glycerol-3-phosphate oxidase, xanthine oxidase, cholesterol oxidase, galactose oxidase, alcohol oxidase and pyruvate oxidase, were tested for hydrogen peroxide generation on five substrates, including tampon material (e.g., cellulosic materials, including, but not limited to, cotton and rayon fibers), polydextran, carboxymethylcellulose, chitosan, and poly (vinyl alcohol).
One unit of each enzyme was combined with 0.05 ml of a saturated solution (in distilled, deionized water) of each substrate in a test tube and diluted to 0.5 ml with buffer (0.5 M Tris buffer, pH adjusted to 6.3). In the case of insoluble substrates, a piece (approximately 0.25 g) of the substrate was placed in the test tube. The tubes were placed in an oscillating incubator at 37° C. After 12 h, the tubes were removed and the solution was assayed for H2O2 level by an established method (Graf, E. and Penniston, J. T., “Method for Determination of Hydrogen Peroxide, With Its Application Illustrated by Glucose Assay,” Clinical Chemistry, 26, 658-660 (1980)). The results are depicted in Table 2 in μg H2O2 per ml. (For production of hydrogen peroxide over time, see FIG. 1.)

[2] = H2O2 production by alcohol oxidase on modified pva/polycap polymer versus unmodified poly (vinyl alcohol); conditions: direct comparison (data not shown)
[3] = Self-limiting features of peroxide generation, alcohol oxidase-carboxymethylcellulose; conditions: carboxymethylcellulose substrate, 37° C.
Description: FIG. 4 is a graphical representation of the effect of pH on hydrogen peroxide production. Depicted is hydrogen peroxide production resulting from alcohol oxidase activity with carboxymethylcellulose as a function of pH (with no initial peroxide added, after agitation for 8 hours at 37° C. in normal atmosphere).
FIG. 5 is a graphical representation of the effect of initial hydrogen peroxide (H2O2) on H2O2 production. Depicted is hydrogen peroxide production resulting from alcohol oxidase activity with carboxymethylcellulose as a function of initial hydrogen peroxide added (at pH 6.3, after agitation for 8 hours at 37° C. in normal atmosphere).
One of the enzyme-substrate combinations, alcohol oxidase-carboxymethylcellulose, was further studied. One unit of enzyme was combined with 0.05 ml of 2.5% carboxymethyl cellulose in a test tube and diluted to 0.5 ml with buffer of appropriate pH. The tubes were placed in an oscillating incubator at 37° C. After 8 hours, the tubes were removed and the solution was assayed for H2O2 level.

[4] = substrate Tampon Material (cotton)

In the case of alcohol oxidase, the “level of H2O2 production compared with the other enzymes” value ([1]; across the five substrates of Table 2) is reported as “highest level of H2O2 production on most of the substrates”, the “μg of H2O2 produced/ml” value ([1]; substrate CM Cellulose) is reported as 103.96 μg H2O2 per ml and the “μg of H2O2 produced/ml” value ([1]; substrate Chitosan) is reported as 9.38 μg H2O2 per ml. The “μg of H2O2 produced/ml” value ([1]; substrate Poly(vinyl alcohol)) was 53.20 μg H2O2 per ml, the “μg of H2O2 produced/ml” value ([1]; substrate Polydextran) was 92.89 μg H2O2 per ml and the “μg of H2O2 produced/ml” value [1, 4] was 97.84 μg H2O2 per ml. For the same substance, the “more H2O2 produced on modified pva/polycap polymer than on unmodified poly (vinyl alcohol)” value [2] was 22%, the “enzyme activity as a function of pH” value ([3]; 8 hours, FIG. 4) was “decreased with decreasing pH” and the “hydrogen peroxide production at pH 6.3” value ([3]; pH 6.3, 8 hours) was “high levels of hydrogen peroxide”. For the same substance, the “effect of initial hydrogen peroxide on enzyme activity” value ([3]; pH 6.3, 8 hours, FIG. 5) was “deactivated in the presence of high concentrations of hydrogen peroxide”.

In the case of cholesterol oxidase, the “μg of H2O2 produced/ml” value ([1]; substrate CM Cellulose) is reported as 4.01 μg H2O2 per ml, the “μg of H2O2 produced/ml” value ([1]; substrate Chitosan) is reported as 14.09 μg H2O2 per ml and the “μg of H2O2 produced/ml” value ([1]; substrate Poly(vinyl alcohol)) is reported as 5.13 μg H2O2 per ml. The “μg of H2O2 produced/ml” value ([1]; substrate Polydextran) was 3.89 μg H2O2 per ml and the “μg of H2O2 produced/ml” value [1, 4] was 4.92 μg H2O2 per ml.

With galactose oxidase the “μg of H2O2 produced/ml” value ([1]; substrate CM Cellulose) was 4.43 μg H2O2 per ml, the “μg of H2O2 produced/ml” value ([1]; substrate Chitosan) was 8.06 μg H2O2 per ml and the “μg of H2O2 produced/ml” value ([1]; substrate Poly(vinyl alcohol)) was 4.34 μg H2O2 per ml. The “μg of H2O2 produced/ml” value ([1]; substrate Polydextran) was 3.89 μg H2O2 per ml and the “μg of H2O2 produced/ml” value [1, 4] was 6.45 μg H2O2 per ml.

For glucose oxidase, the “μg of H2O2 produced/ml” value ([1]; substrate CM Cellulose) was 3.31 μg H2O2 per ml, the “μg of H2O2 produced/ml” value ([1]; substrate Chitosan) was 10.66 μg H2O2 per ml and the “μg of H2O2 produced/ml” value ([1]; substrate Poly(vinyl alcohol)) was 4.47 μg H2O2 per ml. The “μg of H2O2 produced/ml” value ([1]; substrate Polydextran) was 54.69 μg H2O2 per ml and the “μg of H2O2 produced/ml” value [1, 4] was 4.43 μg H2O2 per ml.

In the case of glycerol-3-phosphate oxidase, the “μg of H2O2 produced/ml” value ([1]; substrate CM Cellulose) is reported as 3.97 μg H2O2 per ml, the “μg of H2O2 produced/ml” value ([1]; substrate Chitosan) is reported as 9.01 μg H2O2 per ml and the “μg of H2O2 produced/ml” value ([1]; substrate Poly(vinyl alcohol)) is reported as 3.85 μg H2O2 per ml. For the same substance, the “μg of H2O2 produced/ml” value ([1]; substrate Polydextran) was 4.01 μg H2O2 per ml and the “μg of H2O2 produced/ml” value [1, 4] was 4.84 μg H2O2 per ml.

With pyruvate oxidase the “μg of H2O2 produced/ml” value ([1]; substrate CM Cellulose) was 9.84 μg H2O2 per ml, the “μg of H2O2 produced/ml” value ([1]; substrate Chitosan) was 11.94 μg H2O2 per ml and the “μg of H2O2 produced/ml” value ([1]; substrate Poly(vinyl alcohol)) was 3.85 μg H2O2 per ml. The “μg of H2O2 produced/ml” value ([1]; substrate Polydextran) was 9.75 μg H2O2 per ml and the “μg of H2O2 produced/ml” value [1, 4] was 6.66 μg H2O2 per ml.

In the case of xanthine oxidase, the “μg of H2O2 produced/ml” value ([1]; substrate CM Cellulose) is reported as 6.08 μg H2O2 per ml, the “μg of H2O2 produced/ml” value ([1]; substrate Chitosan) is reported as 10.00 μg H2O2 per ml and the “μg of H2O2 produced/ml” value ([1]; substrate Poly(vinyl alcohol)) is reported as 6.00 μg H2O2 per ml. For the same substance, the “μg of H2O2 produced/ml” value ([1]; substrate Polydextran) was 5.96 μg H2O2 per ml and the “μg of H2O2 produced/ml” value [1, 4] was 10.46 μg H2O2 per ml.
